Experimental data reported in US20180161291A1, “EXTENDED RELEASE UREA COMPOSITIONS” (Kato Pharmaceuticals, Inc., priority 2015, published 2018).

How the values were obtained:
[1] = tested on: vitreous and retina of injected eyes; conditions: cited from earlier work
[2] = tested on: human patients with single or multiple retinal tears; test: Treatment of retinal tears: intravitreal urea 3 days before pneumatic Retinopexy; assay type: in vivo
Protocol: All patients received pneumatic Retinopexy treatment 3 days after intravitreal injection of 1.5 mg of urea in 50 μl of aqueous solution prepared according to the formulation set forth in Table II above. […] Within 3-7 days after urea injection, 11/12 patients had developed PVD, only 1/12 patients had not developed PVD. Within 90 days of the urea injection that one patient also developed PVD.
Within 3 days of treatment 9/12 patients had complete retinal reattachment and macular attachment, and within 7 days all 12 patients had complete retinal reattachment and macular attachment. […]
(Tornambe, P. E. et. al. Opthalmology, 1989; 96: 772-783).

[3] = tested on: patients with long standing optic nerve damage related to optic nerve tumors; test: Treatment of optic nerve damage related to optic nerve tumors; assay type: in vivo, human
Protocol: In another study, three patients with long standing (6 months or longer) optic nerve damage related to optic nerve tumors were treated with a single intravitreal injection of 100 μl of a 6% urea containing formulation. All three patient treated reported a significant improvement in visual acuity after treatment. The patients' visual acuity improved from an average of Count Fingers at 12 inches to 20/200.

[4] = tested on: patients with nonproliferative diabetic retinopathy; test: Treatment of diabetic retinopathy; assay type: in vivo, human; conditions: within 2-4 weeks after single intravitreal injection of 3% urea, 0.9% sodium chloride; 69 patients
From the text: Sixty-nine patients with nonproliferative diabetic retinopathy were each administered a single intravitreal injection of 50 UI of a urea formulation containing 3% urea, 0.9% sodium chloride, and sterile water for injection.
The vitreous liquefaction and vitreous collapse in non-proliferative diabetic retinopathy patients would inhibit the growth and proliferation of the blood vessels, and thus inhibit the progression of diabetic retinopathy. All 69 (of the) patients were followed for six months following the procedure.

[5] = tested on: human patients with diabetes-related nonclearing vitreous hemorrhage; test: Treatment of vitreous hemorrhage; assay type: in vivo; conditions: within 2 to 4 weeks after single intravitreal injection of 6% urea, 0.9% sodium chloride; seven patients
Protocol: The formulations and treatments disclosed herein are also effective to treat vitreous hemorrhage. In this example, seven human patients were treated for diabetes-related nonclearing vitreous hemorrhage. Each patient received a single intravitreal injection of 1001l of a formulation containing urea. The formulation used in this example contained 6% urea, 0.9% sodium chloride, and sterile water for injection (qs 100%).

[6] = Storage stability of lyophilized urea formulation; assay type: physicochemical; conditions: storage at room temperature
Protocol: (§1) Formulation: Sterile lyophilized Urea, USP-NF in buffered isotonic saline for intravitreal injections. Injectable: Reconstituted with 300 μL sterile water for injection. Dosage form: 100 μL dose contains 18 mg Urea, USP-NF (18% w/v) in glass vial. Storage: room temperature. Stability: stable >24 mo for lyophilized form. […] PVD rate: 25% targeted efficacy.

[7] = tested on: human patients requiring pars plana vitrectomy; test: Treatment as adjunct to vitrectomy; assay type: in vivo
Protocol: In this example, five human patients requiring pars plana vitrectomy for various indications were treated one week prior to vitrectomy with a single intravitreal injection of 100 μl of a urea in aqueous solution. The formulation contained 6% urea, 0.9% sodium chloride, and sterile water for injection (qs 100%). All patients underwent routine vitrectomies 8 to 10 days after the urea injection. The minimum waiting time between the urea injection and the vitrectomy procedure is about 1 day to 3 days.
No vitrectomy cutter was used.

[8] = tested on: non-diabetic patients with symptomatic VMA; test: Ex-U.S. Phase Ib study: induction of PVD by multiple intravitreal injections of urea; assay type: in vivo, human; conditions: preliminary
Protocol: (§2) A study was conducted to examine effect of multiple intravitreal injections of small molecule formulation of urea on induction of posterior vitreous detachment (PVD).
as §1
(§3) Ex-U.S. study design: 3:1 randomized, controlled, Phase Ib, POC & safety study. Patient population: non-diabetic patients with symptomatic VMA. Treatment arm: 20 patients. Control arm: 5 patients. Treatment: high dose arm (Day 0: 100 μL 36% w/v injection; Day 30: 100 μL 36% w/v injection for all unresolved patients); low dose arm (Day 0: 100 μL 18% w/v injection; Day 30: 100 μL 18% w/v injection for all unresolved patients). Follow-up: days 0, 2, 8, 15, 30, 45, 60 and 90.

[9] = cited from earlier work
[10] = tested on: patient with stage 3 idiopathic macular hole; test: Treatment of idiopathic macular hole: intravitreal urea followed by expandable gas; assay type: in vivo, human; conditions: for visual acuity: baseline 20/400; for size of the macular hole: baseline 450 μm
Protocol: The macular defect was classified as a stage 3 macular hole, and the patient's visual acuity was recorded at 20/400 at a baseline time point prior to urea treatment. […] Seven days after the intravitreal urea injection the patient was administered an intravitreal injection of 0.3 ml of expandable gas (C3 F8).
One week after administration of the gas, the size of the macular hole had decreased from 450 μm to a smaller size of 200 μm and the patient's vision had improved from a baseline visual acuity of 20/400 to 20/80. Two weeks post treatment the size of the macular hole had decreased from 450 μm to a smaller size of 90 μm and the patient's vision had improved from a baseline visual Acuity of 20/400 to 20170. Four weeks post treatment the size of the macular hole had decreased from 450 μm to a smaller size of 60 μm and the patient's vision had improved from a baseline visual acuity of 20/400 to 20/60.

[11] = tested on: human patients with retinitis pigmentosa; test: Treatment of retinitis pigmentosa, double masked placebo controlled dose escalation study; assay type: in vivo
Protocol: A double masked placebo controlled, randomized, dose escalation study was done in 32 human patients with retinitis pigmentosa. All patients were treated with a single intravitreal injection of 50 μl of a urea-containing formulation. Three groups of patients received different concentrations of urea. One group received a formulation containing 1.5% urea, 0.9% sodium chloride, and sterile water for injection. A second group received an identical formulation except the formulation contained 3.0% urea. A third group received an identical formulation except the formulation contained 6.0% urea. A placebo group received 50 μl of 0.9% sodium chloride.
Forty-seven percent of the patient reported an increase of at least 3 lines of best corrected visual acuity measured by ETDRS charts, whereas, only 14% of the placebo patients reported an increase of at least 3 lines of best corrected visual acuity measured by ETDRS charts.
There was no dramatic increase in the visual field of the placebo control patients.

[12] = tested on: non sighted patients with optic nerve damage caused by trauma and/or glaucoma; test: Treatment of neuropathies, double masked placebo controlled dose escalation study; assay type: in vivo, human
Protocol: In accordance with the present disclosure, urea, thiourea, guanidine and possibly the other compounds of General Formula I above are effective to treat neuropathies 5 (e.g., disorders or damage to nerves). In this example, 33 non sighted patients with optic nerve damage caused by trauma and/or glaucoma, with visual acuity of light perception or no light perception were administered a urea-containing formulation, as disclosed herein. The study was a double masked placebo controlled, randomized, dose escalation study conducted with 33 human patients with optic nerve damage. Patients were randomized into 5 groups, Group 1 of 5 patients. Group 2 of 4 patients, Group 3 of 8 patients, Group 4 of 8 patients and Group 5 of 8 patients. Each patient received a single intravitreal injection of 50 UI of an aqueous treatment solution, as follows:
In Six patients the vision improved from No light perception to light perception, in 2 patients the vision improved from light perception to count fingers at 12 inches, in 2 patients the vision improved from no light perception to 20 20/400 and 20/800 vision and in 2 patients the vision improved from light perception to 20/600 and 20/800 vision. No patients in the placebo group reported any improvement in best corrected visual acuity as measured by ETDRS charts.

[13] = tested on: non-diabetic patients with symptomatic VMA; test: Multiple intravitreal injections of urea: overall (pooled) results; assay type: in vivo, human
Protocol: as §2, §1
(§4) U.S. study design: 2:1 randomized, Phase Ib, dose ranging & safety study. Patient population: 30 non-diabetic patients with symptomatic VMA. Treatment: high dose arm (Day 0: 100 μL 18% w/v injection; Day 30: 100 μL 18% w/v injection for all unresolved patients); low dose arm (Day 0: 100 μL 9% w/v injection; Day 30: 100 μL 9% w/v injection for all unresolved patients). Follow-up: days 0, 2, 8, 15, 30, 60, 90 and 180.
as §3
FIGS. 10 and 11 show the preliminary US and ex-US results, respectively. For the US study, 4 of 10 patients in high-dose group met primary endpoint, 1 of 7 patients in low-dose group met primary endpoint. For the ex-US study, 5 of 11 patients in high-dose group met primary endpoint, 3 of 6 patients in low-dose group met primary endpoint.

[14] = tested on: non-diabetic patients with symptomatic VMA; test: U.S. Phase Ib study: induction of PVD by multiple intravitreal injections of urea; assay type: in vivo, human; conditions: preliminary
Protocol: as §2, §1, §4

[15] = one week after administration of the gas

Molecule: Collagenase
- reported adverse effect on the injected eye ([1]; dispase: 15 minutes after injection): disrupt the outer layers of the retina
- reported effect on the vitreous ([1]; in vivo): liquefy the vitreous

Molecule: NC(N)=O [urea]
- adverse effects of the intravitreal injection, ophthalmoscopic and biomicroscopic examination ([2]; 1.5 mg urea in 50 μl, Table II formulation, 12 patients): no adverse effects
- patients with improvement of more than 2 lines of visual acuity (11 letters) ([2]; 6 months post Retinopexy): 64%
- occurrence of new retinal tears with associated retinal detachment ([2]; follow up 90 days): none
- patients with improvement of more than 2 lines of visual acuity (11 letters) ([2]; time not printed in the sentence (1 month post Retinopexy by context)): 64%
- patients who developed PVD ([2]; within 3-7 days after urea injection): 11/12
- patients with complete retinal reattachment and macular attachment ([2]; within 3 days of treatment): 9/12
- patients with complete retinal reattachment and macular attachment ([2]; within 7 days): 12 patients
- average visual acuity after treatment ([3]; from an average of Count Fingers at 12 inches): 20/200
- patients reporting a significant improvement in visual acuity after treatment ([3]; single intravitreal 100 μl of 6% urea, three patients): All three
- patients with complete vitreous liquefaction and collapse [4]: 69 patients
- patients with clearance of vitreous hemorrhage sufficient to treat the retina with photocoagulation [5]: All seven
- stability of lyophilized form [6]: > 24 mo
- decrease in surgical time relative to patients who did not receive urea ([7]; 6% urea, 100 μl intravitreal one week prior to vitrectomy): 70%
- vitreous status at the time of vitrectomy ([7]; by one week after single intravitreal 100 μl of 6% urea, 0.9% sodium chloride, five patients): complete vitreous liquefaction and collapse
- patients who met primary endpoint ([8]; high-dose group, 100 μL 36% w/v): 5 of 11
- patients who met primary endpoint ([8]; low-dose group, 100 μL 18% w/v): 3 of 6
- pH of solution ([9]; 10% water solution): 7.2
- stability of the solid ([9]; stored under dry conditions): stable at room temperature
- adverse effects of the intravitreal injection, ophthalmoscopic and biomicroscopic examination ([10]; 1.5 mg urea, Table III formulation): no adverse effects
- visual acuity ([10]; four weeks post treatment): 20/60
- size of the macular hole ([10]; four weeks post treatment): 60 μm
- visual acuity [10, 15]: 20/80
- size of the macular hole [10, 15]: 200 μm
- time to complete Posterior Vitreous Detachment (PVD) ([10]; single intravitreal injection 1.5 mg urea, Table III formulation, one patient): ≤ 7 days
- size of the macular hole ([10]; two weeks post treatment): 90 μm
- patients with an increase of at least 3 lines of best corrected visual acuity (ETDRS charts) ([11]; single intravitreal 50 μl of 1.5%, 3.0% or 6.0% urea, placebo 14%): Forty-seven
- average improvement in the patient's visual field ([11]; urea-treated patients): 10 degrees
- patients whose vision improved from No light perception to light perception ([12]; in vivo): Six
- patients whose vision improved from light perception to 20/600 and 20/800 vision ([12]; in vivo): 2 patients
- patients whose vision improved from light perception to count fingers at 12 inches ([12]; in vivo): 2 patients
- patients whose vision improved from no light perception to 20/400 and 20/800 vision ([12]; in vivo): 2 patients
- patients with an increase of best corrected visual acuity (ETDRS charts) ([12]; single intravitreal injection of 0.2%, 1.5%, 3.0% or 6.0% urea, no improvement in placebo group): Forty-three
- efficacy ([13]; after a second injection): 40%
- % resolution of VMA ([13]; non-ERM): 44%
- safety: drug related adverse effects ([13]; up to 4 injections): no drug related adverse effects
- efficacy ([13]; with one injection): 30%
- patients who met primary endpoint ([14]; high-dose group, 100 μL 18% w/v): 4 of 10
- patients who met primary endpoint ([14]; low-dose group, 100 μL 9% w/v): 1 of 7
